ChEMBL document CHEMBL1153552, “Comparative in vitro pharmacodynamics of caspofungin, micafungin, and anidulafungin against germinated and nongerminated Aspergillus conidia” (2008)
Activity calls are given as the source filed them. No cut-off for these calls is given here.

Assays:
[1] = test system: Aspergillus fumigatus; experiment: Antifungal activity against nongerminated Aspergillus fumigatus assessed as lowest drug concentration that produced short, stubby and highly branched hyphae after 48 hrs by microscopic analysis; format: functional; settings: read-out: MEC
[2] = test system: Aspergillus fumigatus; experiment: Antifungal activity against germinated Aspergillus fumigatus assessed as lowest drug concentration that produced short, stubby and highly branched hyphae after 48 hrs by microscopic analysis; format: functional; settings: read-out: MEC
[3] = test system: Aspergillus fumigatus; experiment: Ratio of log2 of MEC for germinated Aspergillus fumigatus to log2 of MEC for nongerminated Aspergillus fumigatus; format: functional
[4] = test system: Aspergillus terreus; experiment: Antifungal activity against nongerminated Aspergillus terreus assessed as lowest drug concentration that produced short, stubby and highly branched hyphae after 48 hrs by microscopic analysis; format: functional; settings: read-out: MEC
[5] = test system: Aspergillus terreus; experiment: Antifungal activity against germinated Aspergillus terreus assessed as lowest drug concentration that produced short, stubby and highly branched hyphae after 48 hrs by microscopic analysis; format: functional; settings: read-out: MEC
[6] = test system: Aspergillus terreus; experiment: Ratio of log2 of MEC for germinated Aspergillus terreus to log2 of MEC for nongerminated Aspergillus terreus; format: functional
[7] = test system: Aspergillus flavus; experiment: Antifungal activity against nongerminated Aspergillus flavus assessed as lowest drug concentration that produced short, stubby and highly branched hyphae after 48 hrs by microscopic analysis; format: functional; settings: read-out: MEC
[8] = test system: Aspergillus flavus; experiment: Antifungal activity against germinated Aspergillus flavus assessed as lowest drug concentration that produced short, stubby and highly branched hyphae after 48 hrs by microscopic analysis; format: functional; settings: read-out: MEC
[9] = test system: Aspergillus flavus; experiment: Ratio of log2 of MEC for germinated Aspergillus flavus to log2 of MEC for nongerminated Aspergillus flavus; format: functional
[10] = test system: Aspergillus fumigatus; experiment: Effect on nongerminated Aspergillus fumigatus metabolic activity assessed as drug concentration at which fungal metabolic activity occurs after 2 hrs by XTT assay; format: functional
[11] = test system: Aspergillus fumigatus; experiment: Effect on germinated Aspergillus fumigatus metabolic activity assessed as drug concentration at which fungal metabolic activity occurs after 2 hrs by XTT assay; format: functional
[12] = test system: Aspergillus fumigatus; experiment: Effect on Aspergillus fumigatus metabolic activity assessed number of twofold drug dilutions required for germinated fungal metabolic activity to nongerminated fungal metabolic activity; format: functional
[13] = test system: Aspergillus terreus; experiment: Effect on nongerminated Aspergillus terreus metabolic activity assessed as drug concentration at which fungal metabolic activity occurs after 2 hrs by XTT assay; format: functional
[14] = test system: Aspergillus terreus; experiment: Effect on germinated Aspergillus terreus metabolic activity assessed as drug concentration at which fungal metabolic activity occurs after 2 hrs by XTT assay; format: functional
[15] = test system: Aspergillus terreus; experiment: Effect on Aspergillus terreus metabolic activity assessed number of twofold drug dilutions required for germinated fungal metabolic activity to nongerminated fungal metabolic activity; format: functional
[16] = test system: Aspergillus flavus; experiment: Effect on nongerminated Aspergillus flavus metabolic activity assessed as drug concentration at which fungal metabolic activity occurs after 2 hrs by XTT assay; format: functional
[17] = test system: Aspergillus flavus; experiment: Effect on germinated Aspergillus flavus metabolic activity assessed as drug concentration at which fungal metabolic activity occurs after 2 hrs by XTT assay; format: functional
[18] = test system: Aspergillus flavus; experiment: Effect on Aspergillus flavus metabolic activity assessed number of twofold drug dilutions required for germinated fungal metabolic activity to nongerminated fungal metabolic activity; format: functional
[19] = test system: Aspergillus fumigatus; experiment: Induction of maximal metabolic inhibition in nongerminated Aspergillus fumigatus assessed as minimal metabolic activity Ymin after 2 hrs by XTT assay; format: functional; set-up: scale not given: the % may be the effect or the level left
[20] = test system: Aspergillus fumigatus; experiment: Induction of maximal metabolic inhibition in germinated Aspergillus fumigatus assessed as minimal metabolic activity Ymin after 2 hrs by XTT assay; format: functional; set-up: scale not given: the % may be the effect or the level left
[21] = test system: Aspergillus terreus; experiment: Induction of maximal metabolic inhibition in nongerminated Aspergillus terreus assessed as minimal metabolic activity Ymin after 2 hrs by XTT assay; format: functional; set-up: scale not given: the % may be the effect or the level left
[22] = test system: Aspergillus terreus; experiment: Induction of maximal metabolic inhibition in germinated Aspergillus terreus assessed as minimal metabolic activity Ymin after 2 hrs by XTT assay; format: functional; set-up: scale not given: the % may be the effect or the level left
[23] = test system: Aspergillus flavus; experiment: Induction of maximal metabolic inhibition in nongerminated Aspergillus flavus assessed as minimal metabolic activity Ymin after 2 hrs by XTT assay; format: functional; set-up: scale not given: the % may be the effect or the level left
[24] = test system: Aspergillus flavus; experiment: Induction of maximal metabolic inhibition in germinated Aspergillus flavus assessed as minimal metabolic activity Ymin after 2 hrs by XTT assay; format: functional; set-up: scale not given: the % may be the effect or the level left
[25] = test system: Aspergillus fumigatus; experiment: Decrease in nongerminated Aspergillus fumigatus metabolism assessed as metabolic activity at 64 ug/mL after 48 hrs by XTT assay; format: functional; set-up: scale not given: the % may be the effect or the level left
[26] = test system: Aspergillus fumigatus; experiment: Decrease in germinated Aspergillus fumigatus metabolism assessed as metabolic activity at 64 ug/mL after 48 hrs by XTT assay; format: functional; set-up: scale not given: the % may be the effect or the level left
[27] = test system: Aspergillus terreus; experiment: Decrease in nongerminated Aspergillus terreus metabolism assessed as metabolic activity at 64 ug/mL after 48 hrs by XTT assay; format: functional; set-up: scale not given: the % may be the effect or the level left
[28] = test system: Aspergillus terreus; experiment: Decrease in germinated Aspergillus terreus metabolism assessed as metabolic activity at 64 ug/mL after 48 hrs by XTT assay; format: functional; set-up: scale not given: the % may be the effect or the level left
[29] = test system: Aspergillus flavus; experiment: Decrease in nongerminated Aspergillus flavus metabolism assessed as metabolic activity at 64 ug/mL after 48 hrs by XTT assay; format: functional; set-up: scale not given: the % may be the effect or the level left
[30] = test system: Aspergillus flavus; experiment: Decrease in germinated Aspergillus flavus metabolism assessed as metabolic activity at 64 ug/mL after 48 hrs by XTT assay; format: functional; set-up: scale not given: the % may be the effect or the level left
[31] = test system: Aspergillus fumigatus; experiment: Decrease in nongerminated Aspergillus fumigatus metabolism assessed as metabolic activity at 128 ug/mL after 48 hrs by XTT assay; format: functional; set-up: scale not given: the % may be the effect or the level left
[32] = test system: Aspergillus fumigatus; experiment: Decrease in germinated Aspergillus fumigatus metabolism assessed as metabolic activity at 128 ug/mL after 48 hrs by XTT assay; format: functional; set-up: scale not given: the % may be the effect or the level left
[33] = test system: Aspergillus terreus; experiment: Decrease in nongerminated Aspergillus terreus metabolism assessed as metabolic activity at 128 ug/mL after 48 hrs by XTT assay; format: functional; set-up: scale not given: the % may be the effect or the level left
[34] = test system: Aspergillus terreus; experiment: Decrease in germinated Aspergillus terreus metabolism assessed as metabolic activity at 128 ug/mL after 48 hrs by XTT assay; format: functional; set-up: scale not given: the % may be the effect or the level left
[35] = test system: Aspergillus flavus; experiment: Decrease in nongerminated Aspergillus flavus metabolism assessed as metabolic activity at 128 ug/mL after 48 hrs by XTT assay; format: functional; set-up: scale not given: the % may be the effect or the level left
[36] = test system: Aspergillus flavus; experiment: Decrease in germinated Aspergillus flavus metabolism assessed as metabolic activity at 128 ug/mL after 48 hrs by XTT assay; format: functional; set-up: scale not given: the % may be the effect or the level left
[37] = test system: Aspergillus fumigatus; experiment: Antifungal activity against nongerminated Aspergillus fumigatus assessed as absence of visual fungal growth at 128 ug/mL; format: functional, organism-based
[38] = test system: Aspergillus fumigatus; experiment: Antifungal activity against germinated Aspergillus fumigatus assessed as absence of visual fungal growth at 128 ug/mL; format: functional, organism-based
[39] = test system: Aspergillus terreus; experiment: Antifungal activity against nongerminated Aspergillus terreus assessed as absence of visual fungal growth at 128 ug/mL; format: functional, organism-based
[40] = test system: Aspergillus terreus; experiment: Antifungal activity against germinated Aspergillus terreus assessed as absence of visual fungal growth at 128 ug/mL; format: functional, organism-based
[41] = test system: Aspergillus flavus; experiment: Antifungal activity against nongerminated Aspergillus flavus assessed as absence of visual fungal growth at 128 ug/mL; format: functional, organism-based
[42] = test system: Aspergillus flavus; experiment: Antifungal activity against germinated Aspergillus flavus assessed as absence of visual fungal growth at 128 ug/mL; format: functional, organism-based

CC[C@H](C)C[C@H](C)CCCCCCCCC(=O)N[C@H]1C[C@@H](O)[C@@H](NCCN)NC(=O)[C@@H]2[C@@H](O)CCN2C(=O)[C@H]([C@H](O)CCN)NC(=O)[C@H]([C@H](O)[C@@H](O)c2ccc(O)cc2)NC(=O)[C@@H]2C[C@@H](O)CN2C(=O)[C@H]([C@@H](C)O)NC1=O [CASPOFUNGIN]
minimal effective concentration [1]: 1 µg/mL
minimal effective concentration [2]: 1 µg/mL
Ratio [3]: 0
minimal effective concentration [4]: 0.5 µg/mL
minimal effective concentration [5]: 1 µg/mL
Ratio [6]: 1
minimal effective concentration [7]: 1 µg/mL
minimal effective concentration [8]: 1 µg/mL
Ratio [9]: 0
EC5 [10]: 0.67 µg/mL
EC5 [11]: 1.2 µg/mL
Ratio [12]: 0.96
EC5 [13]: 0.65 µg/mL
EC5 [14]: 1.06 µg/mL
Ratio [15]: 1.12
EC5 [16]: 0.64 µg/mL
EC5 [17]: 0.87 µg/mL
Ratio [18]: 0.43
Activity [19]: 26%
Activity [20]: 26%
Activity [21]: 34%
Activity [22]: 35%
Activity [23]: 17%
Activity [24]: 21%
Activity [25]: <5%
Activity [26]: <5%
Activity [27]: <5%
Activity [28]: <5%
Activity [29]: <5%
Activity [30]: <5%
Activity [31]: <5%
Activity [32]: <5%
Activity [33]: <5%
Activity [34]: <5%
Activity [35]: <5%
Activity [36]: <5%
Activity [37]: Active
Activity [38]: Active
Activity [39]: Active
Activity [40]: Active
Activity [41]: Active
Activity [42]: Active
